# Source: patent US6100256A, “Use of NK-1 receptors antagonists for treating schizophrenic disorders” (priority 1996, dated 2000)
# Where two headings read alike, the source gives them in different places.
# Target: T1, NK-1 receptor (Meriones unguiculatus, UniProt Q5DUB1)
# T1 construct: from tissue; host or cells: central nervous system of living Mongolian gerbils (in vivo, agonist infused i.c.v.)
# Assay: Gerbil foot-tapping induced by central NK-1 receptor agonist (GR73632)
# Format: in vivo, Mongolian gerbils
# Settings: iv
# Text: Assay 2: Gerbil Foot-Tapping
# CNS-penetrant NK-1 receptor antagonists for use in the present invention can be identified by their ability to inhibit foot tapping in gerbils induced by anxiogenic agents (such as pentagastrin) or central infusion of NK-1 receptor agonists such as GR73632, or caused by aversive stimulation such as foot shock or single housing, based on the method of Rupniak & Williams, Eur. J. Pharmacol., 1994, 265, 179.
# Male or female Mongolian gerbils (35-70 g) are anaesthetised by inhalation of an isoflurane/oxygen mixture to permit exposure of the jugular vein in order to permit administration of test compounds or vehicle in an injection volume of 5 ml/kg i.v. Alternatively, test compounds may be administered orally or by subcutaneous or intraperitoneal routes. A skin incision is then made in the midline of the scalp to expose the skull. […]
# T1 sequence (Q5DUB1 whole entry, the tested form may be a part): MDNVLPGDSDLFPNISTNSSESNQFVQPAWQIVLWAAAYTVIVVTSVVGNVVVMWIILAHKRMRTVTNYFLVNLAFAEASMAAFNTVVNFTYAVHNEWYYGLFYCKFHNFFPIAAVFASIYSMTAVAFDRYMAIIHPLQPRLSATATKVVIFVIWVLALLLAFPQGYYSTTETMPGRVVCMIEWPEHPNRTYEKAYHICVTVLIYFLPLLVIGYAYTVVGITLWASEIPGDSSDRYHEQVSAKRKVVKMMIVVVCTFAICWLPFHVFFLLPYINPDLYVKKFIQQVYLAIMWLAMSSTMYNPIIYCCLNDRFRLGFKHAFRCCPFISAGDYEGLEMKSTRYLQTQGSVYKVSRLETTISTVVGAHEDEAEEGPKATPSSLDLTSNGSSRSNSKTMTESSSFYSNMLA
smiles,measurement,setting,value
"OC[C@@H](O[C@H]1OCCN(Cc2nc[nH]n2)[C@H]1c1ccc(F)cc1)c1cc(C(F)(F)F)cc(C(F)(F)F)c1 [2-(R)-(1-(S)-(3,5-bis(trifluoromethyl)phenyl)-2-hydroxyethoxy)-3-(S)-(4-fluorophenyl)-4-(1,2,4-triazol-3-yl)methylmorpholine]",ED50,"5 min, i.v., 5 mins., administered immediately prior to central NK1 agonist challenge, read-out: gerbil foot-tapping (5 mins.): ID50",0.38 mg/kg
same,ED50,"24 hrs. prior to central NK1 agonist challenge, read-out: gerbil foot-tapping (24 hrs.): ID50",2.2 mg/kg
